In patent US20170056373A1, “GHRELIN O-ACYLTRANSFERASE INHIBITORS” (SYRACUSE UNIVERSITY, priority 2015, published 2017):
Each block holds one compound with its values, some of them ahead of it. Ends that are not written are not given here. * marks the point of attachment. acrylodan = CN(C)c1ccc2cc(C(=O)CC*)ccc2c1; Dansyl = CN(C)c1cccc2c(S(=O)(=O)*)cccc12

Columns and labels:
hGOAT [1] = molecular target: T1, hGOAT (Homo sapiens, UniProt Q96T53); assay: fluorescent ghrelin peptide substrates assayed for activity with hGOAT (HPLC with fluorescence detection); type: biochemical; conditions: peptide as substrate for octanoylation by hGOAT
T1 construct: His10 (C); made in house; host or cells: Sf9 insect cells (baculovirus), membranes
T1 sequence (Q96T53 1-435): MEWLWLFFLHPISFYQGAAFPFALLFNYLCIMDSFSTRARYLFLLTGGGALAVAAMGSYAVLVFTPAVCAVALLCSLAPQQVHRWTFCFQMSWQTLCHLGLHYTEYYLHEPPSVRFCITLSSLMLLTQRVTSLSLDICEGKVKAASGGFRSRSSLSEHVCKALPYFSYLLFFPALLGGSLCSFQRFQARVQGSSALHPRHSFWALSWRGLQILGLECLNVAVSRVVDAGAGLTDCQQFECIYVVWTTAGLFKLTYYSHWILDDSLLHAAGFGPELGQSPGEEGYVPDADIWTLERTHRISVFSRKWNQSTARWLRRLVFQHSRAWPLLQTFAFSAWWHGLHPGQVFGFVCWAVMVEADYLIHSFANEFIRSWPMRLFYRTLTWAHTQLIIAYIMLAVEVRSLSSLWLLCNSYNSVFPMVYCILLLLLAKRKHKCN
Description: With the peptide substrates, the addition of the hydrophobic octanoyl group upon serine acylation at position 3 leads to an increase in retention time in reverse-phase (RP) HPLC. The panel of fluorescent ghrelin peptide substrates was assayed for activity with hGOAT using HPLC coupled with fluorescence detection of the fluorescently labeled peptides. All reactions with hGOAT-His10 membranes were performed in parallel with mock membranes to account for nonspecific peptide modifications.
(§1) An assay for human ghrelin O-acyltransferase activity was performed using hGOAT expressed from insect (Sf9) cells using standard baculoviral methods and a fluorescent 6-mer peptide synthesized by a single step reaction followed by high performance liquid chromatography (HPLC) purification. The assay was performed at room temperature using hGOAT membrane protein, octanoyl-CoA, a fluorescent ghrelin peptide, a buffer, and a detergent. Activity may be measure by detecting the presence of any octanoylation of the ghrelin peptide. For example, the presence of octanoylated ghrelin peptide may be confirmed by HPLC or by using a fluorescent system whose fluorescence will increase as a result of octanoylation of the ghrelin peptide.

mouse isoform of GOAT = molecular target: T2, mouse isoform of GOAT (Mus musculus, UniProt P0C7A3); assay: cell-based inhibition of ghrelin octanoylation, acyl ghrelin ELISA in GOAT/preproghrelin transfected HEK293FT cells; conditions: stably transfected HEK293FT cells, 24 hours incubation, read-out: cellular IC50, reduction of acyl ghrelin concentrations
T2 construct: expressed in transfected cells; host or cells: HEK293FT, stably transfected with the phPPG-mGOAT plasmid (gift from Dr. Jef Boeke's laboratory)
T2 sequence (P0C7A3 1-435): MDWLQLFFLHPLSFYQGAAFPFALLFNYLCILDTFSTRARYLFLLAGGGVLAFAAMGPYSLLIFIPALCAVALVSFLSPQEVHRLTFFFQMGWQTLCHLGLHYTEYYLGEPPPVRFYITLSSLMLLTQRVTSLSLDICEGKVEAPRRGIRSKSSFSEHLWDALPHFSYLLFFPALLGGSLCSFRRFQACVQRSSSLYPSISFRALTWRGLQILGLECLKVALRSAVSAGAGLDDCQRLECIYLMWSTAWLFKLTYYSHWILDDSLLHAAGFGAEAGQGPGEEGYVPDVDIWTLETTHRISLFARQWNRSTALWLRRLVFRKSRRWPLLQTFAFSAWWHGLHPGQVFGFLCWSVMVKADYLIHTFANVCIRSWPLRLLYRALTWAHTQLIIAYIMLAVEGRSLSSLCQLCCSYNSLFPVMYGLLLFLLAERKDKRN
Description: Stably transfected GOAT/Preproghrelin HEK 293FT cells were generated using the phPPG-mGOAT plasmid (a gift from Dr. Jef Boeke's laboratory) containing human preproghrelin (hPPG) and mouse ghrelin O-acyltransferase (mGOAT) connected by an intervening encephalomyocarditis virus internal ribosome entry site (ECMV-IRES) under puromycin selection as previously described. Cells were transfected using Lipofectamine 2000 (Invitrogen) at a 2 μL to 1 μg DNA ratio in 10 cm tissue culture-treated dishes according to manufacturer's protocol. The 293FT-hPPG-mGOAT cells were cultured in DMEM medium (Corning) supplemented with 10% inactivated fetal bovine serum, 1% penicillin/streptomycin, 1 ug/mL puromycin, and 0.01% octanoic acid and routinely passaged 2-3 times per week. A clonal line was chosen through serial dilution into a 96-well plate.
Cell density and number were optimized for detection of acyl ghrelin via ELISA (EMD Millipore Corp). 293FT-hPPG-mGOAT clonal cells were plated in the late afternoon in 24-plates at 2×10^5 cells/well. Cells were incubated overnight at 37° C., 5% CO2 and treated the next morning with inhibitors or vehicle (DMSO) in triplicate. Cells were treated for 24 hours and harvested after medium aspiration using 40 μL/well trypsin-EDTA (0.25%, Corning) containing 5 μM methoxy arachidonyl flourophosphonate (MAFP). […]

hGOAT [2] = molecular target: T1, hGOAT; assay: in vitro hGOAT activity assay (inhibition of ghrelin peptide octanoylation, HPLC/fluorescence); type: biochemical; conditions: for IC50: hGOAT membrane fraction from Sf9 cells, in vitro octanoylation assay
Description: as §1
A library of potential inhibitors was screened using the assay of the present invention. More particularly, membrane fractions from Sf9 cells expressing hGOAT were thawed on ice and homogenized by passing through an 18-gauge needle ten times. Membrane fraction containing ˜50-100 μg membrane protein (determined by Bradford assay) was preincubated for 30 minutes at room temperature with 1 μM MAFP, 500 μM octanoyl CoA, 50 mM HEPES (pH=7.0), and 1 μl Diversity Set compound dissolved in DMSO for a final inhibitor concentration of either 10 or 100 μM for primary screening. Reactions were initiated with the addition of 1.5 μM fluorescent peptide substrate, incubated at room temperature in the dark for 3 hours, then stopped with 50 μl 20% acetic acid in isopropanol. The solutions were clarified by protein precipitation with 16.7 μl 20% trichloroacetic acid, followed by centrifugation (1,000×g, 1 m). The resulting supernatant was analyzed by reverse phase HPLC.
Reactions followed the above procedure, and included inhibitor concentrations of 1, 5, 10, 50, or 100 μM, as well as a DMSO-only vehicle control. Compounds determined to act as hGOAT inhibitors are seen in FIGS. 4 through 6.

Active with hGOAT? (hGOAT [1]): not modified by hGOAT and No
Compound: 1-Dansyl: fluorescent ghrelin mimic peptide substrate, Dansyl-GSSFLS (SEQ. ID No. 2) (ends and bridges not checked)

IC50 (mouse isoform of GOAT): 0.32 ± 0.15 µM | IC50 (hGOAT [2]): 8 ± 4 µM
Compound: CCNC(=O)[C@]12CCC(C)(C)C[C@H]1[C@H]1C(=O)C=C3[C@@]4(C)C=C(C#N)C(=O)C(C)(C)[C@@H]4CC[C@@]3(C)[C@]1(C)CC2 [CDDO-EA]

Compound: CC1(C)CC[C@]2(C(=O)n3ccnc3)CC[C@]3(C)[C@H](C(=O)C=C4[C@@]5(C)C=C(C#N)C(=O)C(C)(C)[C@@H]5CC[C@]43C)[C@@H]2C1 [CDDO-Im, 1[2-cyano-3,12-dioxooleana-1,9-dien-28-oyl]imidazole]
IC50 (hGOAT [2]): 38 ± 6 µM

IC50 (mouse isoform of GOAT): 0.035 ± 0.01 µM
Compound: COC(=O)[C@]12CCC(C)(C)C[C@H]1[C@H]1C(=O)C=C3[C@@]4(C)C=C(C#N)C(=O)C(C)(C)[C@@H]4CC[C@@]3(C)[C@]1(C)CC2 [CDDO-Me, methyl 2-cyano-3,12-dioxooleana-1,9(11)dien-28-oate]
inhibitory activity against hGOAT-catalyzed ghrelin octanoylation (in words) (hGOAT [2]; in vitro hGOAT activity assay): exhibits inhibitory activity against hGOAT

Active with hGOAT? (hGOAT [1]): not modified by hGOAT and No
Compound: AcDan-2: acrylodan-labeled ghrelin mimic peptide substrate, GCAcDanSFLS (SEQ. ID No. 3) (GC(acrylodan)SFLS; ends and bridges not checked)

Active with hGOAT? (hGOAT [1]): yielded the octanoylated peptide and Yes
Compound: AcDan-5: acrylodan-labeled ghrelin mimic peptide substrate, GSSFCAcDanS (SEQ. ID No. 4) (GSSFC(acrylodan)S; ends and bridges not checked)

Active with hGOAT? (hGOAT [1]): yielded the octanoylated peptide and Yes
Compound: AcDan-6: acrylodan-labeled ghrelin mimic peptide substrate, GSSFLCAcDan (SEQ. ID No. 5) (GSSFLC(acrylodan)-NH2; ends and bridges not checked)
